Values joined by “and” are separate entries in the source; they are usually repeats but may differ in a detail not shown here. Equal values may be shown once.
Experiments:
P. acnes NCTC 737 [1] = experiment: Minimum inhibitory concentration (MIC) assay; type: cell-based, Propionibacterium acnes
From the text: (a) Minimum Inhibitory Concentration (MIC) Assay
The culture media were as described above.
The assays included both negative (culture medium with no micro-organisms) and positive (culture medium plus diluting solvent plus micro-organism) controls.

P. acnes NCTC 737 [2] = experiment: Minimum bactericidal concentration (MBC) assay; type: cell-based, Propionibacterium acnes
Description: (b) Minimum Bactericidal Concentration (MBC) Assay
Following incubation they were examined visually for bacterial growth.

P. granulosum NCTC 11865 = experiment: Disc diffusion assay (DDA), also supplemented; type: cell-based; settings: 200 μg per disc
Description: (§1) The propionibacteria were cultured and maintained on Wilkins-Chalgren Anaerobe Medium (agar and broth) at pH 6.0; all cultures were incubated anaerobically at 37° C. for 72 hours.
(§2) A sterile paper disc was impregnated with a sample of the test compound in a suitable solvent and 30 minutes allowed for the solvents to evaporate (where possible). The disc was then placed on an agar plate onto which the test micro-organism had been inoculated. The plate was then incubated under the conditions described above, following which it was examined visually for signs of bacterial growth. […] The diameter of this zone of “inhibition” was measured using a ProtoCOL™ automated zone sizer (Synbiosis, Cambridge, UK).
(§3) For assays using Propionibacterium spp. strains the supplements used in the examples below were lipid (either Tween™ 80 or triolein, both at 1% v/v) and sodium chloride (100 mM).

P. acnes PRP-002 = experiment: Disc diffusion assay (DDA), also supplemented; type: cell-based, Propionibacterium acnes; settings: 200 μg per disc
Description: as §1, §2, §3

P. acnes PRP-003 = experiment: Disc diffusion assay (DDA), also supplemented; type: cell-based, Propionibacterium acnes; settings: 200 μg per disc
Description: as §1, §2, §3

P. granulosum PRP-005 = experiment: Disc diffusion assay (DDA), also supplemented; type: cell-based; settings: 200 μg per disc
Description: as §1, §2, §3

P. acnes PRP-007 = experiment: Disc diffusion assay (DDA), also supplemented; type: cell-based, Propionibacterium acnes; settings: 200 μg per disc
Description: as §1, §2, §3

P. acnes PRP-008 = experiment: Disc diffusion assay (DDA), also supplemented; type: cell-based, Propionibacterium acnes; settings: 200 μg per disc
Description: as §1, §2, §3

P. acnes PRP-010 = experiment: Disc diffusion assay (DDA), also supplemented; type: cell-based, Propionibacterium acnes; settings: 200 μg per disc
Description: as §1, §2, §3

P. acnes PRP-017 = experiment: Disc diffusion assay (DDA), also supplemented; type: cell-based, Propionibacterium acnes; settings: 200 μg per disc
P. granulosum PRP-021 = experiment: Disc diffusion assay (DDA), also supplemented; type: cell-based; settings: 200 μg per disc
Description: as §1, §2, §3

P. acnes PRP-023 = experiment: Disc diffusion assay (DDA), also supplemented; type: cell-based, Propionibacterium acnes; settings: 200 μg per disc
Description: as §1, §2, §3

P. acnes PRP-026 = experiment: Disc diffusion assay (DDA), also supplemented; type: cell-based, Propionibacterium acnes; settings: 200 μg per disc
Description: as §1, §2, §3

P. acnes PRP-039 = experiment: Disc diffusion assay (DDA), also supplemented; type: cell-based, Propionibacterium acnes; settings: 200 μg per disc
P. granulosum PRP-043 = experiment: Disc diffusion assay (DDA), also supplemented; type: cell-based; settings: 200 μg per disc
Description: as §1, §2, §3

P. granulosum PRP-044 = experiment: Disc diffusion assay (DDA), also supplemented; type: cell-based; settings: 200 μg per disc
Description: as §1, §2, §3

P. acnes PRP-046 = experiment: Disc diffusion assay (DDA), also supplemented; type: cell-based, Propionibacterium acnes; settings: 200 μg per disc
P. acnes PRP-053 = experiment: Disc diffusion assay (DDA), also supplemented; type: cell-based, Propionibacterium acnes; settings: 200 μg per disc
Description: as §1, §2, §3

P. granulosum PRP-055 = experiment: Disc diffusion assay (DDA), also supplemented; type: cell-based; settings: 200 μg per disc
Description: as §1, §2, §3

P. acnes PRP-059 = experiment: Disc diffusion assay (DDA), also supplemented; type: cell-based, Propionibacterium acnes; settings: 200 μg per disc
Description: as §1, §2, §3

P. acnes PRP-102 = experiment: Disc diffusion assay (DDA), also supplemented; type: cell-based, Propionibacterium acnes; settings: 200 μg per disc
Description: as §1, §2, §3

[3] = tested on: panel of different propionibacterium strains; experiment: MIC by agar dilution and (S)DDA, whole panel; type: cell-based, Propionibacterium spp; settings: compound alone; also under supplemented conditions
Description: For (S)DDA experiments 200 μg of each test compound was added per disc. […] MIC experiments were performed in duplicate, DDA experiments as single replicates only. SDDA experiments were conducted in triplicate.
The activity of the salt (MIC by agar dilution and DDA) was also determined against a panel of different propionibacterium strains. Supplemented DDA experiments were also carried out. […] DMSO was used as the diluting solvent. MIC experiments were performed in duplicate and DDA experiments as single replicates only.

P. acnes NCTC 737 [4] = experiment: Disc diffusion assay (DDA), also supplemented;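 note: paper disc carrying compound placed on inoculated Wilkins-Chalgren Anaerobe agar pH 6.0, with lipid or NaCl supplement where listed, anaerobic 37 °C for 72 h, inhibition zone diameter read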
Description: as §1
(d) Disc Diffusion Assay (DDA)
as §2
(f) Supplemented Disc Diffusion Assays
as §3

S. aureus ATCC 29213 [5] = experiment: Disc diffusion assay (DDA), also supplemented
S. aureus ATCC 29213 [6] = experiment: Synergy disc diffusion assay (SDDA), also supplemented;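 note: disc diffusion on Mueller-Hinton agar at pH 7.2, aerobic incubation at 37 °C lasting 19-20 h, two compounds assessed jointly for combined antimicrobial effect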

## O.O.O.O.O.O=S(=O)([O-])[O-].[Cu+2] [Copper (II) sulphate pentahydrate]
P. acnes NCTC 737 [1]
  MIC: 15.6 µg/mL
  MIC/MBC ratio: 0.125
P. acnes NCTC 737 [2]
  MBC: 125 µg/mL
P. granulosum NCTC 11865
  DDA + salt: 48.34 mm
P. granulosum NCTC 11865; 1% (v/v) triolein
  DDA + lipid: 41.65 mm
P. granulosum NCTC 11865; single replicate
  DDA: 48.34 mm
P. granulosum NCTC 11865; Table 12 series
  DDA: 53.32 mm
P. acnes PRP-002
  DDA + salt: 50.77 mm
P. acnes PRP-002; 1% (v/v) triolein
  DDA + lipid: 47.13 mm
P. acnes PRP-002; single replicate
  DDA: 49.25 mm
P. acnes PRP-002; Table 12 series
  DDA: 57.92 mm
P. acnes PRP-003
  DDA + salt: 51.99 mm
P. acnes PRP-003; 1% (v/v) triolein
  DDA + lipid: 45.91 mm
P. acnes PRP-003; single replicate
  DDA: 52.60 mm
P. acnes PRP-003; Table 12 series
  DDA: 50.18 mm
P. granulosum PRP-005
  DDA + salt: 29.19 mm
P. granulosum PRP-005; 1% (v/v) triolein
  DDA + lipid: 24.32 mm
P. granulosum PRP-005; single replicate
  DDA: 24.02 mm
P. granulosum PRP-005; Table 12 series
  DDA: 22.48 mm
P. acnes PRP-007
  DDA + salt: 55.03 mm
P. acnes PRP-007; 1% (v/v) triolein
  DDA + lipid: 48.95 mm
P. acnes PRP-007; single replicate
  DDA: 56.55 mm
P. acnes PRP-007; Table 12 series
  DDA: 40.35 mm
P. acnes PRP-008
  DDA + salt: 51.99 mm
P. acnes PRP-008; 1% (v/v) triolein
  DDA + lipid: 48.65 mm
P. acnes PRP-008; single replicate
  DDA: 52.29 mm
P. acnes PRP-008; Table 12 series
  DDA: 43.70 mm
P. acnes PRP-010
  DDA + salt: 62.33 mm
P. acnes PRP-010; 1% (v/v) triolein
  DDA + lipid: 46.82 mm
P. acnes PRP-010; single replicate
  DDA: 63.24 mm
P. acnes PRP-010; Table 12 series
  DDA: 46.73 mm
P. acnes PRP-017
  DDA + salt: 56.85 mm
P. acnes PRP-017; 1% (v/v) triolein
  DDA + lipid: 55.03 mm
P. acnes PRP-017; single replicate
  DDA: 51.38 mm
P. acnes PRP-017; Table 12 series
  DDA: 46.31 mm
P. granulosum PRP-021
  DDA + salt: 32.84 mm
P. granulosum PRP-021; 1% (v/v) triolein
  DDA + lipid: 28.28 mm
P. granulosum PRP-021; single replicate
  DDA: 27.67 mm
P. granulosum PRP-021; Table 12 series
  DDA: 29.59 mm
P. acnes PRP-023
  DDA + salt: 51.38 mm
P. acnes PRP-023; 1% (v/v) triolein
  DDA + lipid: 47.43 mm
P. acnes PRP-023; single replicate
  DDA: 47.13 mm
P. acnes PRP-023; Table 12 series
  DDA: 60.95 mm
P. acnes PRP-026
  DDA + salt: 52.90 mm
P. acnes PRP-026; 1% (v/v) triolein
  DDA + lipid: 53.21 mm
P. acnes PRP-026; single replicate
  DDA: 51.08 mm
P. acnes PRP-026; Table 12 series
  DDA: 56.14 mm
P. acnes PRP-039
  DDA + salt: 61.72 mm
P. acnes PRP-039; 1% (v/v) triolein
  DDA + lipid: 59.29 mm
P. acnes PRP-039; single replicate
  DDA: 53.51 mm
P. acnes PRP-039; Table 12 series
  DDA: 56.35 mm
P. granulosum PRP-043
  DDA + salt: 50.17 mm
P. granulosum PRP-043; 1% (v/v) triolein
  DDA + lipid: 41.35 mm
P. granulosum PRP-043; single replicate
  DDA: 46.82 mm
P. granulosum PRP-043; Table 12 series
  DDA: 56.56 mm
P. granulosum PRP-044
  DDA + salt: 31.92 mm
P. granulosum PRP-044; 1% (v/v) triolein
  DDA + lipid: 26.45 mm
P. granulosum PRP-044; single replicate
  DDA: 27.36 mm
P. granulosum PRP-044; Table 12 series
  DDA: 27.81 mm
P. acnes PRP-046
  DDA + salt: 63.54 mm
P. acnes PRP-046; 1% (v/v) triolein
  DDA + lipid: 60.81 mm
P. acnes PRP-046; single replicate
  DDA: 53.81 mm
P. acnes PRP-046; Table 12 series
  DDA: 50.29 mm
P. acnes PRP-053
  DDA + salt: 54.42 mm
P. acnes PRP-053; 1% (v/v) triolein
  DDA + lipid: 51.08 mm
P. acnes PRP-053; single replicate
  DDA: 43.78 mm
P. acnes PRP-053; Table 12 series
  DDA: 50.18 mm
P. granulosum PRP-055
  DDA + salt: 28.88 mm
P. granulosum PRP-055; 1% (v/v) triolein
  DDA + lipid: 27.97 mm
P. granulosum PRP-055; single replicate
  DDA: 27.67 mm
P. granulosum PRP-055; Table 12 series
  DDA: 31.78 mm
P. acnes PRP-059
  DDA + salt: 55.33 mm
P. acnes PRP-059; 1% (v/v) triolein
  DDA + lipid: 48.95 mm
P. acnes PRP-059; single replicate
  DDA: 48.04 mm
P. acnes PRP-059; Table 12 series
  DDA: 50.70 mm
P. acnes PRP-102
  DDA + salt: 49.25 mm
P. acnes PRP-102; 1% (v/v) triolein
  DDA + lipid: 50.77 mm
P. acnes PRP-102; single replicate
  DDA: 46.52 mm
P. acnes PRP-102; Table 12 series
  DDA: 51.65 mm
[3]
  activity against propionibacterium strains tested (in words): excellent level of activity
P. acnes NCTC 737 [4]
  DDA: 49.75 mm and 42.05 (±1.16) mm
  DDA + lipid: 44.03 mm
  DDA + salt: 50.28 mm
  DDA + salt & lipid: 49.96 mm and 49.54 (±1.34) mm
S. aureus ATCC 29213 [5]
  DDA: 0 mm and 0.00 (±0.00) mm
  DDA + lipid: 0 mm
  DDA + salt: 0 mm
  DDA + salt & serum: 0 mm and 0.00 (±0.00) mm
S. aureus ATCC 29213 [6]
  SDDA area increase: 88.33%
  SDDA increase: 15.05 mm
  SDDA with TBHQ: 55.47 mm
  SS SDDA area increase: 10.90%
  SS SDDA increase: 2.32 mm
  SS SDDA with TBHQ: 46.00 mm

Source: patent US20090246292A1, “ANTIMICROBIAL FORMULATIONS COMPRISING A QUINONE AND A COPPER SALT” (priority 2006, published 2009)
